Reference: ChEMBL document CHEMBL5331143, “Stereochemistry-Driven Interactions of α,γ-Peptide Ligands with the Neuropeptide Y Y4-Receptor” (J Med Chem, 2023)
Starred links: 1 amine or outer side, 2 acyl side, 3 side chain; linkers in the order of their positions; H or OH if unused. Non-standard residues stand in square brackets, D forms with d. Residues, ends and D or L forms follow the SMILES beside them. X1 = O=C([C@@H]1C[C@@H](c2ccccc2)[C@@H]1CN[*:1])[*:2]; X2 = O=C([C@H]1C[C@H](c2ccccc2)[C@H]1CN[*:1])[*:2]

How the values were obtained:
[1] = molecular target: T1, Neuropeptide Y receptor type 4 (Homo sapiens, UniProt P50391); test: Agonist potency at human Y4 receptor expressed in HEK293T-NlucN-mGSi/Y4R-NlucC cells by miniGsi protein recruitment assay; format: cell-based
[2] = molecular target: T2, Neuropeptide Y receptor type 2 (Homo sapiens, UniProt P49146); test: Displacement of [3H]propionyl-pNPY from human Y2 receptor expressed in CHO cells measured after 90 mins by MicroBeta plate counter based competition binding assay; format: cell-based
T2 sequence (P49146 whole entry): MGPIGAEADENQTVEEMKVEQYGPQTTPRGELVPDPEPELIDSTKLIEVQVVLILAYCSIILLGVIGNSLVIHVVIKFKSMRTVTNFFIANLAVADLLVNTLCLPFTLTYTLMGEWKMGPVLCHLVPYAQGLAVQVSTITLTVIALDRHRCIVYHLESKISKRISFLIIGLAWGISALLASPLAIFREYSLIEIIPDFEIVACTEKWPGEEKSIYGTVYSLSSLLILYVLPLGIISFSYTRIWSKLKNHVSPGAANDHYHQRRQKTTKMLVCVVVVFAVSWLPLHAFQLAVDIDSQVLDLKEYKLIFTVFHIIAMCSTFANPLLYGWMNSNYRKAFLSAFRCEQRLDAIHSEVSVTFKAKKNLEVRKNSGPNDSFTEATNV

[3] = molecular target: T3, Neuropeptide Y receptor type 5 (Homo sapiens, UniProt Q15761); test: Displacement of [3H]propionyl-pNPY from human Y5 receptor expressed in HEC-1B cells measured after 90 mins by MicroBeta plate counter based competition binding assay; format: cell-based, HEC-1B cell line
T3 sequence (Q15761 whole entry): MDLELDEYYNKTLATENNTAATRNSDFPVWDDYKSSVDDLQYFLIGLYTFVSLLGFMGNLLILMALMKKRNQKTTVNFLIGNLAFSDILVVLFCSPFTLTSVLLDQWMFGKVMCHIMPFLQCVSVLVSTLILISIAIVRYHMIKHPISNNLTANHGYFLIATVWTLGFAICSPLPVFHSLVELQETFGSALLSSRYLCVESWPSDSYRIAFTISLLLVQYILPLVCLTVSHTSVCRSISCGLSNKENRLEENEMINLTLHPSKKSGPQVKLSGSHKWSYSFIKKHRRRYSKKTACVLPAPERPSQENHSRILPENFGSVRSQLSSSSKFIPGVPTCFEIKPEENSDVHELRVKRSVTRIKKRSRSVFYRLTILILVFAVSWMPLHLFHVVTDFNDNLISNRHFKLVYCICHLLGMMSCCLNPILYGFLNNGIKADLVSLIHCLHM

[4] = Stability in human plasma assessed as half life time by measuring loss of intact peptide at 100 uM measured upto 24 hrs at 37 degC; format: ADME, cell-free
[5] = Stability in human plasma assessed as rate constant by measuring loss of intact peptide at 100 uM measured upto 24 hrs at 37 degC; format: ADME, cell-free
[6] = Stability in human plasma assessed as time constant by measuring loss of intact peptide at 100 uM measured upto 24 hrs at 37 degC; format: ADME, cell-free
[7] = molecular target: T1, Neuropeptide Y receptor type 4; test: Agonist potency at human Y4 receptor expressed in HEK293T-NlucN-mGSi/Y4R-NlucC cells assessed as intrinsic activity by miniGsi protein recruitment assay relative to hPP; format: cell-based; conditions: filed as agonist
[8] = Stability in human plasma assessed as intact remained level in presence of ramipril ACE inhibitor measured over 4 hrs at 37 degC; format: ADME, cell-free
[9] = molecular target: T1, Neuropeptide Y receptor type 4; test: Displacement of [3H]UR-KK200 from human Y4 receptor expressed in CHO-Gqi5-mtAQE cells measured after 90 mins by MicroBeta plate counter based competition binding assay; format: cell-based

T1 sequence (P50391 whole entry): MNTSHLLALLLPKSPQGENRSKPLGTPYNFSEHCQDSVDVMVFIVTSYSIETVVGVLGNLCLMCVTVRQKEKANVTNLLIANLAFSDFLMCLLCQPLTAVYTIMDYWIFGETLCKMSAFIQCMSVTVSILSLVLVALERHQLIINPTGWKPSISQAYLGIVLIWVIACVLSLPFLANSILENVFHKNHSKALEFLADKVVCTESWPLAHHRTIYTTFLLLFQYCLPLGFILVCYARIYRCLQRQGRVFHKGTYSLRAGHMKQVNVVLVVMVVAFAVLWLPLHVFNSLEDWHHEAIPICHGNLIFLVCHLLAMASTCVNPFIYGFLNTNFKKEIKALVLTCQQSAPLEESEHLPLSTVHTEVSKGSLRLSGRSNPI

Row | SMILES | EC50 ([1]; read-out: EC50) | Ki ([2]; read-out: Ki) | Ki ([2]; read-out: pKi (converted)) | Ki ([3]; read-out: Ki) | Ki ([3]; read-out: pKi (converted)) | half-life at 100 µM [4] | half-life at 100 µM [5] | K [6] | Intrinsic activity [7] | EC50 ([1]; hek293t, read-out: EC50) | EC50 ([1]; read-out: pEC50 (converted)) | Ki ([2]; cho, read-out: Ki) | Stability [8] | Ki ([9]; read-out: Ki) | Ki ([9]; read-out: pKi (converted)) | Ki ([3]; hec-1b cell line, read-out: Ki)
1 | CC(C)C[C@H](NC(=O)[C@@H]1CCCNC(=N)NC(=O)NCCCCNC(=O)CCC(=O)N[C@@H](CCCNC(=N)N)C(=O)N[C@@H](Cc2ccc(O)cc2)C(=O)N1)C(=O)N[C@@H](CCCNC(=N)N)C(=O)N[C@@H](Cc1ccc(O)cc1)C(N)=O |  |  |  |  |  |  |  |  | 68% | 1.7 nM |  |  |  |  |  | 
2 | CC(C)C[C@H](NC(=O)[C@@H](N)CCCNC(=N)N)C(=O)N[C@@H](CCCNC(=N)N)C(=O)N[C@@H](Cc1ccc(O)cc1)C(N)=O |  |  |  |  |  |  |  |  | 54% |  |  |  |  |  |  | 
3 | CC(C)C[C@H](NC(=O)[C@@H]1CCCNC(=N)NC(=O)NCCCCNC(=O)CCC(=O)N[C@@H](CCCNC(=N)N)C(=O)N[C@@H](Cc2c[nH]c3ccccc23)C(=O)N1)C(=O)N[C@@H](CCCNC(=N)N)C(=O)N[C@@H](Cc1ccc(O)cc1)C(N)=O |  |  |  |  |  |  |  |  | 80% |  |  |  |  |  |  | 
4 | CC(=O)N[C@@H](CCCNC(=N)N)C(=O)NC[C@H]1[C@@H](C(=O)N[C@@H](CCCNC(=N)N)C(=O)NC[C@H]2[C@@H](C(=O)N[C@@H](CCCNC(=N)N)C(=O)N[C@@H](Cc3ccc(O)cc3)C(N)=O)C[C@@H]2c2ccccc2)C[C@@H]1c1ccccc1 (Ac-R[X2]R[X2]RY-NH2) |  | > 3000 nM | > 3160 nM |  | > 1000 nM |  |  |  |  |  |  |  |  | 910 nM | 891 nM | > 1000 nM

Other lines, results leading:

Row | EC50 ([1]; read-out: EC50) | Ki ([2]; read-out: Ki) | Ki ([2]; read-out: pKi (converted)) | Ki ([3]; read-out: Ki) | Ki ([3]; read-out: pKi (converted)) | half-life at 100 µM [4] | half-life at 100 µM [5] | K [6] | Intrinsic activity [7] | EC50 ([1]; hek293t, read-out: EC50) | EC50 ([1]; read-out: pEC50 (converted)) | Ki ([2]; cho, read-out: Ki) | Stability [8] | Ki ([9]; read-out: Ki) | Ki ([9]; read-out: pKi (converted)) | Ki ([3]; hec-1b cell line, read-out: Ki) | SMILES
5 | 110 nM | > 5000 nM | > 5010 nM | > 5000 nM | > 5010 nM | 2 h | 1.4 h | 0.5 h⁻¹ | 0.58 |  |  |  |  |  |  |  | CC(=O)N[C@@H](CCCNC(=N)N)C(=O)N[C@@H](Cc1ccc(O)cc1)C(=O)N[C@@H](CCCNC(=N)N)C(=O)N[C@@H](CC(C)C)C(=O)N[C@@H](CCCNC(=N)N)C(=O)N[C@@H](Cc1ccc(O)cc1)C(N)=O
6 | 20 nM |  | > 1000 nM | > 3000 nM | > 3160 nM | 0.55 h | 0.4 h | 1.83 h⁻¹ | 0.5 |  | 18.6 nM | > 1000 nM | Stable | 0.66 nM | 0.646 nM |  | CC(=O)N[C@@H](CCCNC(=N)N)C(=O)NC[C@@H]1[C@H](C(=O)N[C@@H](CCCNC(=N)N)C(=O)N[C@@H](CC(C)C)C(=O)N[C@@H](CCCNC(=N)N)C(=O)N[C@@H](Cc2ccc(O)cc2)C(N)=O)C[C@H]1c1ccccc1 (Ac-R[X1]RLRY-NH2)
7 |  | > 3000 nM | > 3160 nM |  | > 1000 nM |  |  |  |  |  |  |  |  | 340 nM | 331 nM | > 1000 nM | CC(=O)N[C@@H](CCCNC(=N)N)C(=O)NC[C@@H]1[C@H](C(=O)N[C@@H](CCCNC(=N)N)C(=O)NC[C@@H]2[C@H](C(=O)N[C@@H](CCCNC(=N)N)C(=O)N[C@@H](Cc3ccc(O)cc3)C(N)=O)C[C@H]2c2ccccc2)C[C@H]1c1ccccc1 (Ac-R[X1]R[X1]RY-NH2)
8 | 610 nM | > 3000 nM | > 3160 nM | > 3000 nM | > 3160 nM | 3.2 h | 2.2 h | 0.31 h⁻¹ | 0.39 |  | 468 nM |  | Stable | 12 nM |  |  | CC(=O)N[C@@H](CCCNC(=N)N)C(=O)NC[C@H]1[C@@H](C(=O)N[C@@H](CCCNC(=N)N)C(=O)N[C@@H](CC(C)C)C(=O)N[C@@H](CCCNC(=N)N)C(=O)N[C@@H](Cc2ccc(O)cc2)C(N)=O)C[C@@H]1c1ccccc1 (Ac-R[X2]RLRY-NH2)
